# Measurements from patent US9278067B2, “Encapsulation of plasmid DNA (lipogenes™) and therapeutic agents with nuclear localization signal/fusogenic peptide conjugates into targeted liposome complexes” (Regulon, Inc., priority 2000, dated 2016).
# What was measured:
# [1] = pH 7.4; cited from earlier work
# [2] = tested on: K562 human erythroleukemia cell cultures; assay: Transfection of K562 cells with plasmid pCMVβ, beta-galactosidase reporter expression; assay type: cell-based; details: FIG. 2
# complement system = details: cited from earlier work
# isolated lysosomes = details: low concentrations of lipid; cited from earlier work
# luciferase = details: cited from earlier work
# [3] = low concentrations (0.03-0.1 mM)
# neuronal cell = details: cited from earlier work
# [4] = tested on: several different types of cells; details: with monovalent cationic liposomal formulations (DC-Chol and lipofectin); cited from earlier work
# [5] = cell culture; cited from earlier work
# [6] = tested on: C-terminal fragments of the amyloid peptide; details: cited from earlier work
compound,measurement,setting,value
"CC(C)CCC[C@@H](C)[C@H]1CC[C@H]2[C@@H]3CC=C4C[C@@H](OC(=O)NCCN(C)C)CC[C@]4(C)[C@H]3CC[C@]12C [DC-cholesterol, 3β[N—(N′,N′-dimethylaminoethane)carbamoyl]cholesterol]",charged fraction,[1],about 50%
same,cationic lipid compared by level of expression of the reporter beta-galactosidase gene,[2]; liposomes L2-L6 with DOPE,best cationic lipid
"CCCCCCCCCCCCCCOCC(C[N+](C)(C)CCO)OCCCCCCCCCCCCCC.[Br-] (centres unmarked) [DMRIE, N-[1-(2,3-dimyristyloxy)propyl]-N,N-dimethyl-N-(2-hydroxyethyl) ammonium bromide]",charged fraction,[1],100%
"CCCCCCCCCCCCCCCCCCN(CCCCCCCCCCCCCCCCCC)C(=O)CNC(=O)C(CCCNCCCN)NCCCN (centres unmarked) [DOGS, Dioctadecylamidoglycylspermine]",complement activation,complement system,Strong complement activation
"CCCCCCCC/C=C\CCCCCCCC(=O)OCC(C[N+](C)(C)C)OC(=O)CCCCCCC/C=C\CCCCCCCC.[Cl-] (centres unmarked) [DOTAP, N-(1-(2,3-dioleoyloxy)propyl)-N,N,N-trimethylammonium chloride]",free activity of β-galactosidase of isolated lysosomes (membrane destabilization),isolated lysosomes,striking increase in free activity of β-galactosidase
same,increase of antisense activity of anti-luciferase oligonucleotide,luciferase,over 100 fold
same,charged fraction,[1],100%
NCCCNCCCCNCCCN [Spermine],transfection efficiency,[3],enhanced significantly transfection efficiency
"Non-aggregated amyloid beta-peptide (1-40): Alzheimer's beta-amyloid peptide 1-40, non-aggregated",Properties: neuronal cell death,neuronal cell,Induces apoptotic neuronal
Protamine sulfate,plasmid delivery into cells in vitro,[4],enhanced plasmid delivery
same,efficiency of adenovirus-mediated gene transfer,[5],significantly increased
apoE2: apolipoprotein E isoform,inhibition of amyloid peptide fusogenic and aggregational properties,[6],potent inhibitors
apoE3: apolipoprotein E isoform,inhibition of amyloid peptide fusogenic and aggregational properties,[6],potent inhibitors
apoE4: apolipoprotein E isoform,inhibition of amyloid peptide fusogenic and aggregational properties,[6],not apoE4
poly(ethyleneimine),complement activation,complement system,Strong complement activation
poly-L-lysine,efficiency of adenovirus-mediated gene transfer,[5],significantly increased
polyhistidine,DNA condensing reagent compared by level of expression of the reporter beta-galactosidase gene,"[2]; 10 μg pCMVβ, polyK/polyR/polyH plus liposomes 7 nmoles/μg DNA",best DNA condensing reagent
